Assay [1] concerns seminal vesicles. The assay is described as follows: seminal vesicle size after orchiectomy and testosterone replacement. Format: in vivo, mouse. The note with it: testosterone slow releasing pellet. The text has this:
First, the male WT and GPRC6A^−/− littermates will be castrated by removal of the testicles (orchiectomy) and hormone recovered by implanting testosterone slow releasing pellet.

Assay [2] deals with bone marrow and testes. The assay is described as follows: phospho-ERK activity and Egr-1 expression in bone marrow and testes in vivo. The note with it: 200 mg/kg intraperitoneally. Further details: species or system mouse. On the procedure: To establish a linkage between non-genomic effects of androgens and tissue responses in vivo, we examined the impact of loss of GPRC6A on the capacity of testosterone to stimulate phospho-ERK activity and early growth-responsive 1 (Egr-1) expression in bone marrow and testes in vivo (FIGS. 8D and 8E). To accomplish this, we administered testosterone at a dose of 200 MG/KG or vehicle intraperitonealy to wild-type and GPRC6A^−/− male mice.
To establish a linkage between non-genomic effects of androgens and tissue responses in vivo, we examined the impact of loss of GPRC6A on the capacity of testosterone to stimulate phospho-ERK activity and early growth-responsive 1 (Egr-1) expression in bone marrow and testes (FIG. 8E). To accomplish this, we administered testosterone at a dose of 200 mg/kg or vehicle intraperitoneally to wild-type and GPRC6A^−/− male mice. Bone marrow was harvested at 20 and 60 minutes for assessment of ERK phosphorylation and Egr-1 mRNA expression.

Assay [3] has as its target T1, calcium sensing receptor (CASR) (Rattus norvegicus, UniProt P48442).
T1 construct: expressed in transfected cells; host or cells: HEK-293
T1 sequence (P48442 20-1079): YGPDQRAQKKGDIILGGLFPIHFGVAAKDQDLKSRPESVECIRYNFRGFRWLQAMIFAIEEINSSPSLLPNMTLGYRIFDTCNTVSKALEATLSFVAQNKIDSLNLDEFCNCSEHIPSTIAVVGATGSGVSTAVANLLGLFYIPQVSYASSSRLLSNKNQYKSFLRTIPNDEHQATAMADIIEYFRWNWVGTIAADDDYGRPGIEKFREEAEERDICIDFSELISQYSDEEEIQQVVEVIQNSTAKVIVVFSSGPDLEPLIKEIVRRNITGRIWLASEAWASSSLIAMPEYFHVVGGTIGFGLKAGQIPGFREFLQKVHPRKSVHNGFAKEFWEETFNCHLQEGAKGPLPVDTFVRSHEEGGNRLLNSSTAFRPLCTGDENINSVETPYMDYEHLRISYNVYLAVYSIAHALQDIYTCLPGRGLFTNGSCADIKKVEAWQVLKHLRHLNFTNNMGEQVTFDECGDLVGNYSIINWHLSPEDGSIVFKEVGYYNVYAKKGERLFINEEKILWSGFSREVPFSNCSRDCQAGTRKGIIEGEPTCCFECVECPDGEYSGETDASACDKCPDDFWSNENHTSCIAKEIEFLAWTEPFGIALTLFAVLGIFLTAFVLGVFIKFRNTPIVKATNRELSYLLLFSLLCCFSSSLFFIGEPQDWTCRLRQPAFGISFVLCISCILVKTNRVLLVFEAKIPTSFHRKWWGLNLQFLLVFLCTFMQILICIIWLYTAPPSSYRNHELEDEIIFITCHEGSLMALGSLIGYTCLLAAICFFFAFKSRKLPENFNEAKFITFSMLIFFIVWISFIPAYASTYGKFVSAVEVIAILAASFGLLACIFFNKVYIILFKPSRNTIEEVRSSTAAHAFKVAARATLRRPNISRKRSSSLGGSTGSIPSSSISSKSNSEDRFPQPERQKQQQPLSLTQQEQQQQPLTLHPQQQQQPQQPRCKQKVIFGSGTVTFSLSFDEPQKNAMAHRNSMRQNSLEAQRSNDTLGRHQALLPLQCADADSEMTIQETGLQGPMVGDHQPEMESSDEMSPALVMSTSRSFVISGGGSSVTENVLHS
The assay is described as follows: phospho-ERK in HEK-293 cells transfected with calcium sensing receptor. Format: cell-based. The note with it: HEK293 transfected with CASR. On the procedure:
Equal amounts of lysates were subjected to 10% SDS-PAGE, and phospho-ERK1/2 levels were determined by immunoblotting using antiphospho-ERK1/2 mitogen-activated protein kinase antibody (Cell Signaling Technology). […] An anti-peptide antibody was raised in a rabbit against a peptide ([…] (SEQ ID NO: 27)) corresponding to a sequence in the extracellular domain of mouse GPRC6A (in exon 1 of mouse GPRC6A gene) produced by Abgent (San Diego, Calif.). For phospho-ERK, the phospho-ERK1/2 levels were determined by immunoblotting using anti-phospho-ERK1/2 mitogen-activated protein kinase antibody (Cell Signaling Technology). Urinary β2-microglobulin was detected by rabbit polyclonal anti-β2-microglobulin antibody (Abcam Inc.). For aromatase expression analysis, the rabbit polyclonal anti-aromatase antibody (Abcam Inc.) and goat anti-rabbit IgG HRP secondary antibody (Santa Cruz Biotechnology Inc.) were used. Mouse anti-Actin antibody (Santa Cruz Biotechnology Inc.) was used for control protein loading.

For `C[C@]12CC[C@H]3[C@@H](CCC4=CC(=O)CC[C@@]43C)[C@@H]1CC[C@@H]2O` [testosterone], the “recovery of seminal vesicle size” value in assay [1] (orchidectomized GPRC6A-/- mice) is “weaker compared to wild-type”; in assay [1] (orchidectomized wild-type mice), “effectively recovered the size of seminal vesicles”. The entries for the “Egr-1 expression in bone marrow and testes” value in assay [2] (GPRC6A-/- male mice) and in assay [2] (wild-type male mice) were “markedly attenuated” and “stimulated”, respectively. In addition, the “phospho-ERK activity in bone marrow and testes” value in assay [2] (GPRC6A-/- male mice) is “markedly attenuated”; in assay [2] (wild-type male mice) it was “stimulated”. Further, the phospho-ERK response result in assay [3] is on record as “did not responded”.

The values above are taken from US20090142323A1, “METHODS FOR TREATING A DISORDER BY REGULATING GPRC6A” (priority 2007, published 2009).
